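GI50 marks 50% less growth. TGI: total growth inhibition.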
Assays:
Assay in all cases: inhibition of tumour cell growth, NCI panel, 384-well format
A549 NSCLC = system: A549 NSCLC
UACC-62 melanoma = system: UACC-62 melanoma
OVCAR-8 ovarian = system: OVCAR-8 ovarian
LOX IMVI melanoma = system: LOX IMVI melanoma
NCI-H522 lung = system: NCI-H522 lung
HOP-92 NSCLC = system: HOP-92 NSCLC
786-0 renal = system: 786-0 renal
CAKI-1 renal = system: CAKI-1 renal
RPMI-8226 leukemia = system: RPMI-8226 leukemia
HL-60(TB) leukemia = system: HL-60(TB) leukemia
NCI/ADR-RES ovarian = system: NCI/ADR-RES ovarian
DU-145 prostate = system: DU-145 prostate
HCT-116 colon = system: HCT-116 colon
TK-10 renal = system: TK-10 renal
SK-OV-3 ovarian = system: SK-OV-3 ovarian
BT-549 breast = system: BT-549 breast
HCT-15 colon = system: HCT-15 colon
UACC-257 melanoma = system: UACC-257 melanoma
U251 glioblastoma = system: U251 glioblastoma
SF-295 CNS = system: SF-295 CNS
UO-31 renal = system: UO-31 renal
HS 578T breast = system: HS 578T breast
ACHN renal = system: ACHN renal
NCI-H322M lung = system: NCI-H322M lung
MOLT-4 leukemia = system: MOLT-4 leukemia
COLO 205 colon = system: COLO 205 colon
T-47D breast = system: T-47D breast
SK-MEL-28 melanoma = system: SK-MEL-28 melanoma
MALME-3M melanoma = system: MALME-3M melanoma
A498 renal = system: A498 renal
MDA-MB-435 melanoma = system: MDA-MB-435 melanoma
SF-539 CNS = system: SF-539 CNS
OVCAR-4 ovarian = system: OVCAR-4 ovarian
SN12C renal = system: SN12C renal
NCI-H460 NSCLC = system: NCI-H460 NSCLC
KM12 colon = system: KM12 colon
IGROV1 ovarian = system: IGROV1 ovarian
OVCAR-3 ovarian = system: OVCAR-3 ovarian
HCC-2998 colon = system: HCC-2998 colon
HOP-62 NSCLC = system: HOP-62 NSCLC
PC-3 prostate = system: PC-3 prostate
HT29 colon = system: HT29 colon
MDA-MB-468 breast = system: MDA-MB-468 breast
SW-620 colon = system: SW-620 colon
MDA-MB-231 breast = system: MDA-MB-231 breast
MCF7 breast = system: MCF7 breast
SNB-19 CNS = system: SNB-19 CNS
RXF 393 renal = system: RXF 393 renal
NCI-H23 lung = system: NCI-H23 lung
NCI-H226 lung = system: NCI-H226 lung
SF-268 CNS = system: SF-268 CNS
OVCAR-5 ovarian = system: OVCAR-5 ovarian
SR leukemia = system: SR leukemia
EKVX NSCLC = system: EKVX NSCLC
SK-MEL-5 melanoma = system: SK-MEL-5 melanoma
SNB-75 CNS = system: SNB-75 CNS
M14 melanoma = system: M14 melanoma
CCRF-CEM leukemia = system: CCRF-CEM leukemia
SK-MEL-2 melanoma = system: SK-MEL-2 melanoma

## CC(C)C[C@H](NC(=O)[C@H](CCc1ccccc1)NC(=O)CN1CCOCC1)C(=O)N[C@@H](Cc1ccccc1)C(=O)N[C@@H](CC(C)C)C(=O)[C@@]1(C)CO1
A549 NSCLC
  GI50: < 10 nM
  TGI: 25.7 nM
UACC-62 melanoma
  GI50: < 10 nM
  TGI: 19.3 nM
OVCAR-8 ovarian
  GI50: 14.6 nM
  TGI: 28 nM
LOX IMVI melanoma
  GI50: < 10 nM
  TGI: < 10 nM
NCI-H522 lung
  GI50: < 10 nM
  TGI: 10.8 nM
HOP-92 NSCLC
  GI50: 11.6 nM
  TGI: 24.3 nM
786-0 renal
  GI50: < 10 nM
  TGI: 16.5 nM
CAKI-1 renal
  GI50: 17.6 nM
  TGI: 53.9 nM
RPMI-8226 leukemia
  GI50: < 10 nM
  TGI: < 10 nM
HL-60(TB) leukemia
  GI50: < 10 nM
  TGI: < 10 nM
NCI/ADR-RES ovarian
  GI50: 422 nM
  TGI: 1610 nM
DU-145 prostate
  GI50: < 10 nM
  TGI: 19.5 nM
HCT-116 colon
  GI50: < 10 nM
  TGI: < 10 nM
TK-10 renal
  GI50: 21.2 nM
  TGI: 54 nM
SK-OV-3 ovarian
  GI50: 14.1 nM
  TGI: 33.6 nM
BT-549 breast
  GI50: < 10 nM
  TGI: < 10 nM
HCT-15 colon
  GI50: 23.9 nM
  TGI: 86.9 nM
UACC-257 melanoma
  GI50: 14.6 nM
  TGI: 28.8 nM
U251 glioblastoma
  GI50: < 10 nM
  TGI: 21.2 nM
SF-295 CNS
  GI50: 13.2 nM
  TGI: 26.1 nM
UO-31 renal
  GI50: 35.9 nM
  TGI: 110 nM
HS 578T breast
  GI50: < 10 nM
  TGI: < 10 nM
ACHN renal
  GI50: 33.2 nM
  TGI: 109 nM
NCI-H322M lung
  GI50: 15.5 nM
  TGI: 33.7 nM
MOLT-4 leukemia
  GI50: < 10 nM
  TGI: < 10 nM
COLO 205 colon
  GI50: 28.3 nM
  TGI: 105 nM
T-47D breast
  GI50: < 10 nM
  TGI: 18 nM
SK-MEL-28 melanoma
  GI50: 17.2 nM
  TGI: 36.8 nM
MALME-3M melanoma
  GI50: < 10 nM
  TGI: 18.8 nM
A498 renal
  GI50: < 10 nM
  TGI: 24.5 nM
MDA-MB-435 melanoma
  GI50: < 10 nM
  TGI: 21.5 nM
SF-539 CNS
  GI50: < 10 nM
  TGI: < 10 nM
OVCAR-4 ovarian
  GI50: < 10 nM
  TGI: 18.3 nM
SN12C renal
  GI50: 15 nM
  TGI: 29.1 nM
NCI-H460 NSCLC
  GI50: 18.2 nM
  TGI: 33.6 nM
KM12 colon
  GI50: < 10 nM
  TGI: < 10 nM
IGROV1 ovarian
  GI50: 15 nM
  TGI: 30.1 nM
OVCAR-3 ovarian
  GI50: < 10 nM
  TGI: < 10 nM
HCC-2998 colon
  GI50: < 10 nM
  TGI: 14 nM
HOP-62 NSCLC
  GI50: < 10 nM
  TGI: < 10 nM
PC-3 prostate
  GI50: 10.5 nM
  TGI: 23.3 nM
HT29 colon
  GI50: < 10 nM
  TGI: < 10 nM
MDA-MB-468 breast
  GI50: < 10 nM
  TGI: 16.1 nM
SW-620 colon
  GI50: < 10 nM
  TGI: < 10 nM
MDA-MB-231 breast
  GI50: < 10 nM
  TGI: < 10 nM
MCF7 breast
  GI50: < 10 nM
  TGI: 12.4 nM
SNB-19 CNS
  GI50: 12.3 nM
  TGI: 38.8 nM
RXF 393 renal
  GI50: < 10 nM
  TGI: < 10 nM
NCI-H23 lung
  GI50: < 10 nM
  TGI: < 10 nM
NCI-H226 lung
  GI50: < 10 nM
  TGI: < 10 nM
SF-268 CNS
  GI50: < 10 nM
  TGI: < 10 nM
OVCAR-5 ovarian
  GI50: 17.3 nM
  TGI: 45.3 nM
SR leukemia
  GI50: < 10 nM
  TGI: < 10 nM
EKVX NSCLC
  GI50: 13.1 nM
  TGI: 36.2 nM
SK-MEL-5 melanoma
  GI50: < 10 nM
  TGI: 21.6 nM
SNB-75 CNS
  GI50: 15.4 nM
  TGI: 30.6 nM
M14 melanoma
  GI50: < 10 nM
  TGI: 19.1 nM

## COc1ccc(-c2ccc(/C=C/C(=O)NO)cc2)cc1
A549 NSCLC
  GI50: 431 nM
  TGI: 11600 nM
UACC-62 melanoma
  GI50: 1930 nM
  TGI: 4350 nM
OVCAR-8 ovarian
  GI50: 562 nM
  TGI: 2120 nM
NCI-H522 lung
  GI50: 373 nM
  TGI: 1480 nM
HOP-92 NSCLC
  GI50: 986 nM
  TGI: 4190 nM
786-0 renal
  GI50: 1140 nM
  TGI: 3650 nM
CAKI-1 renal
  GI50: 1750 nM
  TGI: 5590 nM
CCRF-CEM leukemia
  GI50: 128 nM
  TGI: 258 nM
RPMI-8226 leukemia
  GI50: 262 nM
  TGI: 548 nM
HL-60(TB) leukemia
  GI50: 255 nM
  TGI: 524 nM
NCI/ADR-RES ovarian
  GI50: 527 nM
  TGI: 1620 nM
DU-145 prostate
  GI50: 1300 nM
  TGI: 3540 nM
TK-10 renal
  GI50: 1820 nM
  TGI: 7230 nM
SK-OV-3 ovarian
  GI50: 349 nM
  TGI: 1560 nM
BT-549 breast
  GI50: 624 nM
  TGI: 3510 nM
HCT-15 colon
  GI50: 332 nM
  TGI: 2730 nM
UACC-257 melanoma
  GI50: 1380 nM
  TGI: 8800 nM
U251 glioblastoma
  GI50: 1190 nM
  TGI: 2850 nM
SF-295 CNS
  GI50: 2840 nM
  TGI: 14200 nM
SK-MEL-2 melanoma
  GI50: 472 nM
  TGI: 1140 nM
HS 578T breast
  GI50: 2850 nM
  TGI: 9630 nM
ACHN renal
  GI50: 2100 nM
  TGI: 4230 nM
NCI-H322M lung
  GI50: 3100 nM
  TGI: 33300 nM
MOLT-4 leukemia
  GI50: 166 nM
  TGI: 329 nM
COLO 205 colon
  GI50: 3310 nM
  TGI: 6560 nM
T-47D breast
  GI50: 1400 nM
  TGI: 5260 nM
SK-MEL-28 melanoma
  GI50: 2600 nM
  TGI: 7200 nM
MALME-3M melanoma
  GI50: 1180 nM
  TGI: 3920 nM
A498 renal
  GI50: 1860 nM
  TGI: 11200 nM
MDA-MB-435 melanoma
  GI50: 4260 nM
  TGI: 64700 nM
SF-539 CNS
  GI50: 525 nM
  TGI: 2200 nM
OVCAR-4 ovarian
  GI50: 284 nM
  TGI: 12200 nM
SN12C renal
  GI50: 1290 nM
  TGI: 3810 nM
NCI-H460 NSCLC
  GI50: 626 nM
  TGI: 2500 nM
KM12 colon
  GI50: 1510 nM
  TGI: 16000 nM
IGROV1 ovarian
  GI50: 1680 nM
  TGI: 5020 nM
OVCAR-3 ovarian
  GI50: 237 nM
  TGI: 531 nM
HOP-62 NSCLC
  GI50: 760 nM
  TGI: 2580 nM
PC-3 prostate
  GI50: 818 nM
  TGI: 9740 nM
HT29 colon
  GI50: 2720 nM
  TGI: 16300 nM
MDA-MB-468 breast
  GI50: 292 nM
  TGI: 578 nM
SW-620 colon
  GI50: 1820 nM
  TGI: 10200 nM
MDA-MB-231 breast
  GI50: 391 nM
  TGI: 1730 nM
MCF7 breast
  GI50: 1410 nM
  TGI: 4280 nM
SNB-19 CNS
  GI50: 2520 nM
  TGI: 11900 nM
RXF 393 renal
  GI50: 298 nM
  TGI: 1130 nM
NCI-H23 lung
  GI50: 728 nM
  TGI: 2340 nM
NCI-H226 lung
  GI50: 457 nM
  TGI: 2410 nM
SF-268 CNS
  GI50: 967 nM
  TGI: 2870 nM
OVCAR-5 ovarian
  GI50: 1940 nM
  TGI: 5930 nM
SR leukemia
  GI50: 195 nM
  TGI: 368 nM
EKVX NSCLC
  GI50: 2280 nM
  TGI: 11400 nM
SK-MEL-5 melanoma
  GI50: 421 nM
  TGI: 1580 nM
SNB-75 CNS
  GI50: 466 nM
  TGI: 4640 nM
M14 melanoma
  GI50: 1450 nM
  TGI: 3280 nM
